The values below come from patent publication US20110313153A1, “5-HT4 INHIBITORS FOR TREATING AIRWAY DISEASES, IN PARTICULAR ASTHMA” (priority 2009, published 2011).

Molecules are shown by their SMILES. Entries after “also recorded” stand apart in the source; their conditions may differ.

Test [1] concerns guinea-pigs. Particulars: antigen induced, guinea pig model; cited from earlier work.
The test system of test [2] is OVA-sensitized mice. Description: Bronchial hyperreactivity (BHR) to i.v. metacholine, dynamic resistance and compliance. Particulars: M0014 prior to each allergen challenge; measured 24 hours after the last OVA aerosol; FIG. 2. The test is classed as in vivo, BALB/c mice. The protocol:
(§1) BALB/c mice (n=6-8 per group) were sensitized to OVA by i.p. injection of OVA/alum (10 μg OVA grade V adsorbed to 1 mg aluminium hydroxide; Sigma-Aldrich) on days 0 and 7 and were subjected to OVA aerosol challenges (grade III) on days 17-19; aerosol challenges were dispensed from a jet nebulizer delivering 1% OVA in PBS for 30 minutes. Thirty minutes before each OVA exposure, mice were anesthetized using Avertin (Sigma-Aldrich) and received an i.t. injection of control vehicle, or of M0014 (0.1, 0.4 or 4 nM in PBS) in a volume of 80 μl. Twenty-four hours after the last OVA exposure, BAL was performed and LNs were resected and digested using collagenase/DNAse.
For the measurement of dynamic resistance and compliance, mice were anesthetized with urethane, paralyzed using d-tubocurarine, tracheotomized, and intubated with an 18-gauge catheter, followed by mechanical ventilation with a Flexivent apparatus (SCIREQ). Respiratory frequency was set at 120 breaths per min with a tidal volume of 0.2 ml and a positive end-expiratory pressure of […]. Increasing concentrations of metacholine were administered via the jugular vein. Dynamic resistance and compliance was recorded after a standardized inhalation maneuver given every 10 seconds for 2 minutes. Baseline resistance was restored before administering the subsequent doses of metacholine.

Test [3] has as its system dog. Kind of test: Dog model of delayed gastric emptying of a liquid meal. The test is classed as in vivo. The settings on record: data not shown. An excerpt: (§2) Also the aroylated 4-aminomethylpiperidines 5-HT4 receptor antagonists (hereinafter also referred to as the compounds) of the present invention (e.g. compound M0014) were capable to suppress or inverse the 5-HT4 R-mediated prokinetic activity of serotonin or 5-HT4 R agonists in the GI tract (data not shown). For example, in conscious dogs, low doses of M0014 reversed the selective serotonin re-uptake inhibitor (SSRI)-induced loss of fundic compliance. […] As a final example, the compound reversed the 5-HT4 R agonist-induced stimulation of canine antral motility, measured with chronically implanted strain gauges.

In test [4] the test system is GI tract. Description: Effect of the antagonist by itself on the studied GI functions. The settings on record: without agonist. The format is in vivo, dog.
Source text: as §2
Similar to SB-207266, the 5-HT4 R antagonist M0014 had by itself no effect on the studied GI functions mentioned above.

The subject of test [5] is dog. Description: Canine antral motility measured with chronically implanted strain gauges. Particulars: data not shown. The format is in vivo.
Source text: as §2

Test [6] concerns conscious dogs. Kind of test: SSRI-induced loss of fundic compliance in conscious dogs. The test is classed as in vivo, dog. The settings on record: low doses, data not shown.
Source text: as §2

Test [7] deals with Balb/c mice. Description: Zymosan induced inflammatory cell recruitment to the lung. The test is classed as in vivo, Female Balb/c mice. The procedure: Female Balb/c mice (7-8 weeks; 20 g) were used in all studies. The animals were kept in standard animal holding facilities and have unlimited access to food and water. Animals were randomized to receive vehicle or 0.1-0.2 ml/20 g mouse, M0014 (0.001, 0.01, 0.1 and 1 mg/kg) via the oral route 30 min prior to, and 6 h after the administration of zymosan (i.n; 20 μL to each nostril, to give a total volume of administration of 40 μL). Animals received zymosan A to give a total dose of 4 mg/mouse.
5 mg of M0014 was dissolved in 5 mL of sterile water to give 1 mg/ml solution. The solutions were prepared freshly each time. The 1 mg/ml solution was diluted to a 0.1, 0.01, 0.001 and 0.0001 mg/ml solution. From these concentrations, 0.2 ml was administered orally to obtain 1, 0.1, 0.01 and 0.001 mg/kg respectively. Sterile water used as control vehicle.
Twenty-four hours after dosing, the mice were killed by overdose with an injectable anaesthetic and 0.5 ml of saline was injected into lung via a tracheal cannula and the fluid collected. This was repeated 3 times. Approximately 1 ml of lavage fluid was collected and stored on ice. Total cells and differential cells were counted and a reduction in neutrophil numbers was the primary end point.

The subject of test [8] is OVA-sensitized mice. Kind of test: OVA-induced experimental asthma in mice: BAL cell infiltrate and MLN cytokines. The format is in vivo, BALB/c mice. The procedure: as §1
Flow cytometry and sorting. After counting and washing, BAL cells were stained for 30 minutes with FITC-labeled anti-I-Ad/I-Ed (macrophages/DCs), PE-labeled anti-CCR3 (eosinophils), Cy-chrome-labeled anti-CD3 and anti-CD19 (lymphocytes), and allophycocyanin-labeled (APClabeled) anti-CD11c (macrophages/DCs) in PBS containing 0.5% BSA and 0.01% sodium azide. Differential cell counts were analyzed by flow cytometry, as previously described (van Rijt et al., 2004).
Cytokine measurements. To measure cytokine levels, MLN cells were plated in round-bottomed 96-well plates (1×10^6 cells/ml) and restimulated with OVA (10 μg/ml) for 4 days. The presence of IL-4, IL-5, IL-13 and IFN-γ was assayed on supernatants by ELISA (BD).

Test [9] relates to GI tract. The settings on record: Sanger et al., cited from earlier work.
Test [10] has as its system human airway epithelial cells, dendritic cells, monocytes. Particulars: no effect of the antagonist per se described; cited from earlier work.
Setting [11] is: MLN cells restimulated with OVA for 4 days, ELISA, FIG. 1C and D.
The mark [12] stands for this setting: i.t. 80 μl, 0.1, 0.4 or 4 nM, 30 minutes prior to each allergen challenge, FIG. 1A.

Consider `Cn1cc(C(=O)OCC2CCN(CCNS(C)(=O)=O)CC2)c2ccccc21` [GR113808], for which, in test [1], the airway hyperresponsiveness result is listed as “capable to normalize”.

For the compound `COCCCN1CC[C@@H](CNC(=O)c2cc(C)cc3c2OCCCO3)[C@H](O)C1` (relative stereo) [M0014, (3S-trans)-8-methyl-3,4-dihydro-3H-benzo[b][1,4]dioxepine-6-carboxylic acid [3-hydroxy-1-(3-methoxy-propyl)-piperidine-4-ylmethyl]-amide], the “OVA-induced change in metacholine responsiveness” value in test [2] is recorded as “markedly attenuated”. The “5-HT4 R agonist-induced acceleration of gastric emptying” value in test [3] was “potently inhibited”. In addition, the “effect by itself on the studied GI functions” value in test [4] is “no effect”. For the same compound, the “5-HT4 R agonist-induced stimulation of canine antral motility” value in [5] was “reversed”. Moreover, in [6], the “SSRI-induced loss of fundic compliance” value is “reversed”. Besides, in test [7] (FIG. 3 legend, <0.05 cf zymosan alone), the neutrophil cell number entry is reported as “significant effect”. In addition, the “total number of cells recruited to the airways” value in test [7] (oral, 0.01 and 0.1 mg/kg, 30 min prior to and 6 h after zymosan, P<0.05 Dunnett's test versus control, FIG. 3a) is on record as “significant effect; also recorded: significantly reduced”. Moreover, the “decrease in the recruitment of neutrophils to the airways” value in test [7] (oral, 0.01 and 0.1 mg/kg, P<0.01 Dunnett's test vs control, FIG. 3c) is on record as 40-50%. Moreover, in [8] (setting [11]), the “IFN-γ production in the MLNs” value is on record as “weak increase”, the “levels of IL-4 in the MLNs” value is “mildly but significantly reduced”, the “levels of IL-5 in the MLNs” value is listed as “mildly but significantly reduced” and the “levels of IL-13 in the MLNs” value was “mildly but significantly reduced”. In test [8] (setting [12]), the “eosinophil infiltrate into the BAL compartment” value is given as “significant dose-dependent reduction”, the “lymphocyte infiltrate into the BAL compartment” value is on record as “significant dose-dependent reduction” and the “macrophage infiltrate into the BAL compartment” value is reported as “significant dose-dependent reduction”.

Regarding `CCCCN1CCC(CNC(=O)c2c3n(c4ccccc24)CCCO3)CC1` [piboserod], the “5-HT4 R-mediated effects of serotonin (5-HT) in the GI tract” value in test [9] (2000, Bharucha et al.) is “antagonizes”. Besides, the normal bowel motility entry in test [9] (animals or humans, 1998) is “does not seem to affect”.

`COc1cc(COc2cc(N)c(Cl)cc2C(=O)CCC2CCN(CCNS(C)(=O)=O)CC2)cc(OC)c1` [RS 39604]: in test [10], the “effects of 5-HT” value is recorded as “inhibit”.
